The text below walks through data of patent US7989188B2, “Conjugates for cancer therapy and diagnosis” (BioSight Ltd., priority 2004, dated 2011).

Some results are limits rather than exact numbers.

Data set [1] can be described thus: In-vitro toxicity profile, MTT cell viability. It is filed as cell-based. The following applies: human, HUVEC (human umbilical vein endothelial cells, normal), healthy cells (HUVEC), at the concentration of 5-FU that resulted in 90% mortality (IC90), FIG. 2. Here is the method:
(§1) Materials and Methods: Human umbilical vein endothelial cells (HUVEC, normal) cells were grown in M199 medium supplemented with 20% fetal calf serum (FCS), vitamins, 1 ng/ml hbFGF, and antibiotics at […], 5% CO2. Human melanoma cells (WW-94, cancer) cells were grown in 50% DMEM/50% F-12 medium supplemented with 10% fetal calf serum and antibiotics.
(§2) The cells were seeded in a 96-well ELISA dish at a concentration of 10,000-20,000 cells/well. The conjugates were added at concentrations that cause IC50 (50% lethality, FIG. 1), or IC90 (90% lethality, FIG. 2) by 5-FU. The cells were incubated for 72 hours at 37° C. and 5% CO2. After 72 hours the medium was aspirated, and DMEM containing 5% FCS and 0.5 mg/ml MTT (3-(4,5-Dimethyl-2-thiazolyl)-2,5-diphenyl-2H-tetrazolium bromide, an indicator of cell viability) was added. The cells were incubated for 2-4 hours at 37° C. and 5% CO2, washed with phosphate buffer saline (PBS) and dissolved in dimethylsulfoxide (DMSO). The results were analyzed using Techan ELISA reader equipped with a 570 nm filter. The results are represented as % of cell mortality.

In data set [2] the test system is Human umbilical vein endothelial cells (HUVEC, normal). Nature of the data set: In-vitro toxicity profile, MTT cell viability. It is filed as cell-based. The following applies: normal cells (HUVEC), 72 hours, at the concentration of 5-FU that causes 50% mortality (IC50), FIG. 1. Here is the method:
as §1, §2

A short description of data set [3]: Acute intravenous (IV) toxicity, single injection, MTD and LD50. The following applies: female, BALB/c, mouse, in vivo, iv. On the procedure:
(§3) Purpose: To measure the potential acute intravenous (IV) toxicity of Asp(5-FU) in mice, estimated by Maximum Tolerated Dose (MTD) and 50% Lethal Dose (LD50).
(§4) Method: The potential acute intravenous (IV) toxicity of the Asp(5-FU) was assessed in groups of BALB/c female mice of 5 mice per group, in order to establish appropriate MTD levels towards a projected series of various anti-tumorigenic efficacy trials.
(§5) Asp(5-FU) was administered as single IV injections at three dose levels of 80, 150 and 200 mg/kg. One group was administered with saline served as control. In all instances, freshly prepared solutions were injected at a constant volume of 10 ml/kg.

Data set [4] has as its system BALB/c female mice. The description is as above. On the procedure:
as §3, §4, §5

The subject of data set [5] is MX-1 human mammary duct carcinoma. Nature of the data set: Anti-tumor activity, MX-1 xenograft murine model, intravenous treatment. The following applies: for increase in tumor volume at the end of the study period: injected Days 10, 14 and 18, Asp(5-FU) 50 and 100 mg/kg, 5-FU 26 mg/kg, saline 170%. It is filed as in vivo, BALB/c nude mice. On the procedure: The potential anti-tumor activity of Asp(5-FU) was assessed based on the relative growth inhibition of human mammary duct carcinoma, MX-1 murine model.
Propagation of Tumor Material (MX-1 fragments): The Mammary Xenograft-1 (MX-1) is a human derived mammary duct carcinoma, supplied by the National Cancer Institute (NCI). The tissue was kept frozen until the time of implantation. The fragments (one to each animal in the study) were prepared according to the NCI recommended transplantation protocol.
Each vial containing 5 to 6 fragments was rapidly thawed (60-90 seconds) in a water bath at 37-40° C. The frozen fragments were implanted immediately after thawing.
Two fragments were implanted close to each other at the same sub-axillary incision site of each animal assigned to the propagation phase. The mass doubling time of the MX-1 tumor during the logarithmic phase was 4-5 days post implantation. Subsequently, another 2 fragments were implanted into each of 6 animals to achieve at least a total of 20 implanted fragments.
At the end of the logarithmic phase, the donor animals were sacrificed, the tumors were excised, dissected and transferred to a sterile Petri dish placed over ice and cut into approximately 20 fragments (about 2×2×2 mm each) for their transplantation into 10 naïve mice. A total of 42 tumor fragments were transplanted at the end of the second propagation phase. No more than 30 minutes elapsed from the time the tumor was removed from the donor animals until transplantation.
Tumor Induction and Monitoring (Pre-Treatment): Upon completion of the propagation phase, tumor fragments measuring about 2×2×2 mm each, were implanted subcutaneously (SC) into the right flank of each test animal assigned to the main study. Tumor growth was monitored twice weekly and the total SC mass (mm^3) determined on the basis of width and length measurement using micrometer calipers. […]
Tumor volume changes were determined using the following equation: V (mm^3)=d^2 (mm^2)×D (mm)/2 wherein d and D represent the smallest and the largest perpendicular tumor diameters respectively. […]
Body Weight: Individual body weights were determined prior to MX-1 fragment transplantation and thereafter once weekly until initiation of treatment. Following initiation of treatment individual body weights were determined twice weekly until the scheduled study termination or in case of removal of animals from the study due to animal welfare reasons, at the time of death.
Necropsy Procedures and Macroscopic Examination: Necropsy was performed on all animals including those removed from the study for animal welfare reasons and all surviving 10 days after the last dosing session (Groups 1, 2 & 3), following euthanasia. […] All gross pathological changes were recorded. […]

Data set [6] can be described thus: Acute toxicity (MTD), single administration by oral gavage. The following applies: mouse, in vivo, po. On the procedure: (§6) OBJECTIVE: To determine the Maximum Tolerated Dose (MTD) of the test product, Asp(5-FU), following a single administration by oral gavage (PO) to mice.
(§7) This experiment was performed essentially according to Example 22 supra, with the exception that the test agent and the controls were administered orally, by oral gavage. Asp(5-FU) was suspended in corn oil and administered by single oral gavage (PO), at 2 dose levels of 200 and 400 mg/kg, to 2 test groups. An additional equally sized group was administered the vehicle (corn oil) and served as control. In all instances the volume dosage was 10 ml/kg.

Data set [7] relates to mice. The description is as above. The following applies: single PO 200 and 400 mg/kg. Here is the method:
as §6, §7

The test system of data set [8] is human mammary duct carcinoma xenograft MX-1. In words: Anti-tumor activity, MX-1 xenograft murine model, oral gavage. In kind it is in vivo, mice. The following applies: PO gavage 200 mg/kg, seven administrations at 3-days inter-dosing intervals. On the procedure:
The compounds were administered to mice following about 3-6 hours food deprivation prior to dosing, using a suitable stainless steel feeding needle. Following dosing, food was withheld for further 1-2 hours.
Dose and Volume Dosage: 50 mg/kg reference item and 200 mg/kg of Asp(5-FU). In all instances, volume dosage was 10 ml/kg.
Frequency and Duration: Treatment with Control, Test or Reference Items was carried out as 1× daily injection at 3-days inter-dosing intervals×7 (days 1-25).

The test system of data set [9] is mice. The following applies: NIH report; cited from earlier work.

By mortality is commonly meant the share of the test organisms that died. Lower therefore signals more survivors. What is called LD50 is the dose expected to kill half of the subjects tested. For `NC(CC(=O)n1cc(F)c(=O)[nH]c1=O)C(=O)O` [Asp(5-FU), L-aspartic acid-beta-1N-(2,4-dioxo-5-fluoropyrimidine)], the mortality at 72 h in data set [1] is 20%. Further, in [2], the “% of cell mortality” value is “did not kill normal cells”. The compound also came in with an LD50 in [3] of 200 mg/kg. Further, the MTD in data set [3] was 160 mg/kg. Further, the “less toxic than 5-FU” value in data set [4] (female, BALB/c, mouse, in vivo) worked out at 600%. Further, the “gross pathological findings at scheduled necropsy” value is reported as “No gross pathological findings” in data set [4] (single IV 80, 150 and 200 mg/kg); “No gross pathological findings” in [7]. For the same compound, the Incidence of mortality in data set [4] (single IV injection, high-dose group 200 mg/kg, immediate post-dosing period) is reported as 3/5. Moreover, the clinical signs result in data set [4] (single IV, high-dose 200 mg/kg, survivors or decedents respectively) was “brief decreased motor activity or lateral recumbency”; in [4] (single IV, intermediate- and low-dose 150 & 80 mg/kg), “No obvious clinical signs”. In addition, the “Mean group body weight” value in data set [4] (single IV, intermediate-dose group, Day 8, p<0.01, full recovery Day 8-15) is “transient reduced body weight”. Further, in [5] (Asp(5-FU) 50 and 100 mg/kg, tumor volume, FIG. 5), the “tumor progression compared to controls” value is given as “significant reduction in tumor progression”. For the same compound, the “tumor weight upon necropsy compared to 5-FU and saline control” value in data set [5] (end of treatment period, FIG. 6) is “significant decrease”. Further, the “increase in tumor volume at the end of the study period” value in data set [5] came out at 104%. The MTD at 14 days in data set [6] is greater than 400 mg/kg. Also, in [7] (14-day observation period), the “clinical signs in reaction to dosing” value is given as “No noticeable clinical signs”. Further, the “progressive tumor development compared to corn oil controls” value in data set [8] is given as “relative decrease in progressive tumor development”.

For the compound `O=c1[nH]cc(F)c(=O)[nH]1` [Compound 5-FU, 2,4-dioxo-5-fluoropyrimidine], the “increase in tumor volume at the end of the study period” value in [5] was determined as 185%. In data set [9], the median lethal dose (LD50) is given as 81 mg/kg and the MTD is 24 to 26 mg/kg.
